According to PMC5748027, “Computer-aided design of multi-target ligands at A1R, A2AR and PDE10A, key proteins in neurodegenerative diseases” (Journal of Cheminformatics, 2017):

How the values were obtained:
[1] = molecular target: T1, A1 human adenosine receptor (A1R) (Homo sapiens, UniProt P30542); test: Radioligand binding competition assay, human A1 receptor in transfected CHO cells; conditions: for Ki: Cheng-Prusoff approximation; for inhibition at 0.1 µM: 0.1 µM compound, read-out: % displacement at 0.1 μM (A1R)
T1 construct: expressed in transfected cells; host or cells: CHO
T1 sequence (P30542 1-326): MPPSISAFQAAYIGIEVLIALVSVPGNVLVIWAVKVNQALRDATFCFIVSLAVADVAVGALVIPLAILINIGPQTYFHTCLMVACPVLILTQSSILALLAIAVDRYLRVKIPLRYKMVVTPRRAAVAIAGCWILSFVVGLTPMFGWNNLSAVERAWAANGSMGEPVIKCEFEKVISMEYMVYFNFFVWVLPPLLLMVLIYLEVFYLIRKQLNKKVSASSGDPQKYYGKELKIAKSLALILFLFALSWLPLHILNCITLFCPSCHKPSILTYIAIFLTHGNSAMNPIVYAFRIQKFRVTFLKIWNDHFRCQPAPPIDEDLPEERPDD
Method: Pharmacological evaluation was performed in a radioligand binding competition assay, using A1, A2A, A2B, and A3 human receptors expressed in transfected CHO (A1), HeLa (A2A and A3), and HEK-293 (A2B) according to the procedure reported by Bosch et al. [78].

[2] = molecular target: T2, A2A human adenosine receptor (A2AR) (Homo sapiens, UniProt P29274); test: Radioligand binding competition assay, human A2A receptor in transfected HeLa cells; conditions: for % displacement at 0.1 μM (A2AR): 0.1 µM compound; for Ki: Cheng-Prusoff approximation
T2 construct: expressed in transfected cells; host or cells: HeLa
T2 sequence (P29274 whole entry): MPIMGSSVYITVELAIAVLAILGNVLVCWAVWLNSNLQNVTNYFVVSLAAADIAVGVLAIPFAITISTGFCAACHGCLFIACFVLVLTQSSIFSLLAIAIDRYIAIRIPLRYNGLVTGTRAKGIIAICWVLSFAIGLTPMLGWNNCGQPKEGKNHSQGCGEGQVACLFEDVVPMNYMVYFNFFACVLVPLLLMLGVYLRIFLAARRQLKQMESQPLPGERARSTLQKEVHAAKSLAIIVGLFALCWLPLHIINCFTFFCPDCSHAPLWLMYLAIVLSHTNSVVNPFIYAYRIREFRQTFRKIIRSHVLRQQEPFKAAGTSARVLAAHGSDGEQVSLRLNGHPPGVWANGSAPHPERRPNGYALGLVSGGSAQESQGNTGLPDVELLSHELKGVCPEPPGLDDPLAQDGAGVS
Method: (§1) Bioactivity testing was performed using A1 and A2A human adenosine receptors expressed in transfected CHO (A1) and HeLa (A2A) cells, as well as AD293 cells that were transiently transfected with human PDE10A. Table 1 includes the list of synthesized 4,6-substituted 2-amino-pyridin-3-carbonitriles, along with their Ki values against A1R, A2AR, and IC50 values against PDE10A.
(§2) Pharmacological evaluation was performed in a radioligand binding competition assay, using A1, A2A, A2B, and A3 human receptors expressed in transfected CHO (A1), HeLa (A2A and A3), and HEK-293 (A2B) according to the procedure reported by Bosch et al..

[3] = molecular target: T3, A2B human receptor (A2BR) (Homo sapiens, UniProt P29275); test: Radioligand binding competition assay, human A2B receptor in transfected HEK-293 cells; conditions: 0.1 µM compound; read-out: percentage displacement at 0.1µM (A2BR)
T3 construct: expressed in transfected cells; host or cells: HEK-293
T3 sequence (P29275 1-332): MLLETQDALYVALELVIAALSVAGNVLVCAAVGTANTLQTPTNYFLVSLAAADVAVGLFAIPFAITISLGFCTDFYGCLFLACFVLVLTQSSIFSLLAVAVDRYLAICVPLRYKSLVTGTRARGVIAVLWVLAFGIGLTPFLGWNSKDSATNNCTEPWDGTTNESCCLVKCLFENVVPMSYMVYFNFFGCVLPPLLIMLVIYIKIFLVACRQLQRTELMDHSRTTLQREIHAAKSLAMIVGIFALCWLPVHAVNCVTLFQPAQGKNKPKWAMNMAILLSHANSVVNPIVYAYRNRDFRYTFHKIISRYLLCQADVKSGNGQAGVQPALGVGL
Method: as §2

A3 human receptor (A3R) = molecular target: T4, A3 human receptor (A3R) (Homo sapiens, UniProt P0DMS8); test: Radioligand binding competition assay, human A3 receptor in transfected HeLa cells; conditions: 0.1 µM compound; read-out: percentage displacement at 0.1µM (A3R)
T4 construct: expressed in transfected cells; host or cells: HeLa
T4 sequence (P0DMS8 1-318): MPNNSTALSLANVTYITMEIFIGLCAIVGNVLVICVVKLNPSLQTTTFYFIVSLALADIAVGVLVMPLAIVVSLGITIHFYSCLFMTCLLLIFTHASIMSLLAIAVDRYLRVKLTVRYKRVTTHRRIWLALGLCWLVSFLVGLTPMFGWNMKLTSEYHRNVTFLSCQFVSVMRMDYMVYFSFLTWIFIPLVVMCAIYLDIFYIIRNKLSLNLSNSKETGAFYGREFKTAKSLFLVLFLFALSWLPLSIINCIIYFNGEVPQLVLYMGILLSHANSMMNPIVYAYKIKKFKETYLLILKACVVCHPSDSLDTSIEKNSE
Method: as §2

human PDE10A = molecular target: T5, human PDE10A (Homo sapiens, UniProt Q9Y233); test: Phosphodiesterase activity, AD293 cells transiently transfected with human PDE10A; type: biochemical; conditions: for inhibition at 10 µM: read-out: % inhibition at 10 μM (PDE10A), 10 μM compound; for IC50: mean of 3 experiments in duplicate
T5 construct: expressed in transfected cells; host or cells: AD293 (transient transfection)
T5 sequence (Q9Y233 267-1055 limits assumed): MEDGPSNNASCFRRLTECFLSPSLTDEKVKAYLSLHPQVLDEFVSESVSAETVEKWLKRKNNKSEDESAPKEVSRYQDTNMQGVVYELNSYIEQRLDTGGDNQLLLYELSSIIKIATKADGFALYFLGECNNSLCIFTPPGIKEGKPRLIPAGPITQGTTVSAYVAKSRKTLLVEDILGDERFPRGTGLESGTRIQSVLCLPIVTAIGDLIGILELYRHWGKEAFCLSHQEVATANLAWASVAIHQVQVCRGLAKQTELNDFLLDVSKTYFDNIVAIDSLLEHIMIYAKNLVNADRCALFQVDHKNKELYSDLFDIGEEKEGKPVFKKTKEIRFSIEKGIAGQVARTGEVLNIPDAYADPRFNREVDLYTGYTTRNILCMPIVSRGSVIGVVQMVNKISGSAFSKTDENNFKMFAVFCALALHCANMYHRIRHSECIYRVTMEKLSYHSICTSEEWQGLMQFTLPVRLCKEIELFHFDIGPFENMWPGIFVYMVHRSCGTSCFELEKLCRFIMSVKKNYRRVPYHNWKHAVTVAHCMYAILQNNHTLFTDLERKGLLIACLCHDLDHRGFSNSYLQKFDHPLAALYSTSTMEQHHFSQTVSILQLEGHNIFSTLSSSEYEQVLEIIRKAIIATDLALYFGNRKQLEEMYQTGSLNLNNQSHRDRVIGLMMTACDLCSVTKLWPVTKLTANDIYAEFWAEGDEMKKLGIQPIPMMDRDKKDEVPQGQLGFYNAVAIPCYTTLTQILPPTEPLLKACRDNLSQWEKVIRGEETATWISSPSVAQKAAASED
Method: as §1
(§3) The activity measurements against the phosphodiesterases PDE7A, PDE7B, PDE9A and PDE10A were performed using AD293 cells that were transiently and separately transfected with human PDE7A, PDE7B, PDE9A, and PDE10A following the procedure described by Shipe et al..

human PDE7A = molecular target: T6, human PDE7A (Homo sapiens, UniProt Q13946); test: Phosphodiesterase activity, AD293 cells transiently transfected with human PDE7A; type: biochemical; conditions: for inhibition at 10 µM: 10 µM compound, read-out: Percentage inhibition at 10µM (PDE7A)
T6 construct: expressed in transfected cells; host or cells: AD293 (transient transfection)
T6 sequence (Q13946 whole entry): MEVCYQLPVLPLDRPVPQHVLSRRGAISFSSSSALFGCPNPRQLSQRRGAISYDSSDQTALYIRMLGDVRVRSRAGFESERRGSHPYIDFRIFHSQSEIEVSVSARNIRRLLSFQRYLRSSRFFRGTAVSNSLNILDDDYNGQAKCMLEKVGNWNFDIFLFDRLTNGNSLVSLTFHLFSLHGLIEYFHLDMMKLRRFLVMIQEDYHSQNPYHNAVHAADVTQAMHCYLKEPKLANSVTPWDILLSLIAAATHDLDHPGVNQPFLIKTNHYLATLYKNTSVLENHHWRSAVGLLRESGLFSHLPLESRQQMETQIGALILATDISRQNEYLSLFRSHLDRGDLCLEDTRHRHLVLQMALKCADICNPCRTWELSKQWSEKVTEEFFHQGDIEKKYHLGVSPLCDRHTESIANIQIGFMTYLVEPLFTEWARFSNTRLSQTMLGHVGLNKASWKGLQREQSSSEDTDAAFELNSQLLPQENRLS
Method: as §3

human PDE7B = molecular target: T7, human PDE7B (Homo sapiens, UniProt Q9NP56); test: Phosphodiesterase activity, AD293 cells transiently transfected with human PDE7B; type: biochemical; conditions: for inhibition at 10 µM: 10 µM compound, read-out: Percentage inhibition at 10µM (PDE7B)
T7 construct: expressed in transfected cells; host or cells: AD293 (transient transfection)
T7 sequence (Q9NP56 whole entry): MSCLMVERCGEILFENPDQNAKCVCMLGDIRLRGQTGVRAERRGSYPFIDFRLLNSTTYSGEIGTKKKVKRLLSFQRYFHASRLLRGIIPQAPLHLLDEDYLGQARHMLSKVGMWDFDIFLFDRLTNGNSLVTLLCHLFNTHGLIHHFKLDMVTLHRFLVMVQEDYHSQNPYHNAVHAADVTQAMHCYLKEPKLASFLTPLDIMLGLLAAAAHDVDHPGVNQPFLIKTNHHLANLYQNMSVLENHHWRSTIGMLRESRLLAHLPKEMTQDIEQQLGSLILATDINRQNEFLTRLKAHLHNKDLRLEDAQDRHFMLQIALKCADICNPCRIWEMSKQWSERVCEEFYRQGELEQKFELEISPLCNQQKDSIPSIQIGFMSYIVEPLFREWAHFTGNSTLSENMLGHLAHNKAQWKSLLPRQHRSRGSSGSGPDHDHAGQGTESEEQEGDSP
Method: as §3

human PDE9A = molecular target: T8, human PDE9A (Homo sapiens, UniProt O76083); test: Phosphodiesterase activity, AD293 cells transiently transfected with human PDE9A; type: biochemical; conditions: 10 µM compound; read-out: Percentage inhibition at 10µM (PDE9A)
T8 construct: expressed in transfected cells; host or cells: AD293 (transient transfection)
T8 sequence (O76083 whole entry): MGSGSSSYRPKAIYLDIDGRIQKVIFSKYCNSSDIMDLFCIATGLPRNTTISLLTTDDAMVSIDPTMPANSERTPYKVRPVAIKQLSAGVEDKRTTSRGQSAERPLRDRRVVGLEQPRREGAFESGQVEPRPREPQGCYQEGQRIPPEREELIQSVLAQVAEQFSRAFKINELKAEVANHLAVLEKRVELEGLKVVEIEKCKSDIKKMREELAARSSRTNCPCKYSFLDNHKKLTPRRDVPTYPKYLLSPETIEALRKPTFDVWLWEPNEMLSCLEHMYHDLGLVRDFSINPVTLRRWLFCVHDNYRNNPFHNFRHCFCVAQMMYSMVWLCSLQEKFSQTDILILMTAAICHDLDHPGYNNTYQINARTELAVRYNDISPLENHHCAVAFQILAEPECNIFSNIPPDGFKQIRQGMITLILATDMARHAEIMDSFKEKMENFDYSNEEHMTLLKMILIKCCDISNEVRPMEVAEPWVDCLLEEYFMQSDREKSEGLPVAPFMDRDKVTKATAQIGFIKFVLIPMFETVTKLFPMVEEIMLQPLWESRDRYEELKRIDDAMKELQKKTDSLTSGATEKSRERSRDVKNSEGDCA
Method: as §3

SMILES	Ki [1] [nM]	% displacement at 0.1 μM (A2AR) [2] [%]	inhibition at 0.1 µM [3] [%]	inhibition at 0.1 µM (A3 human receptor (A3R)) [%]	inhibition at 10 µM (human PDE10A) [%]	inhibition at 10 µM (human PDE7A) [%]	inhibition at 10 µM (human PDE7B) [%]	inhibition at 10 µM (human PDE9A) [%]	inhibition at 0.1 µM [1] [%]	IC50 (human PDE10A) [µM]	melting point [°C]	Ki [2] [nM]	IC50 (human PDE7A) [µM]	IC50 (human PDE7B) [µM]
N#Cc1c(-c2ccccc2)cc(-c2ccc(F)cc2)nc1N [Compound 1, 2-amino-6-(4-fluorophenyl)-4-phenylpyridine-3-carbonitrile]	394 ± 12	32	2	27	22	9	28	1	–	–	–	–	–	–
N#Cc1c(-c2ccccc2)cc(-c2ccc(O)cc2)nc1N [Compound 2, 2-amino-6-(4-hydroxyphenyl)-4-phenylpyridine-3-carbonitrile]	142 ± 7	38	2	2	52	47	39	1	–	–	–	–	–	–
N#Cc1c(-c2ccccc2)cc(-c2nccs2)nc1N [Compound 3, 2-amino-4-phenyl-6-(1,3-thiazol-2-yl)pyridine-3-carbonitrile]	–	8	3	6	–	24	36	5	12	2 ± 0.2	154 to 156	–	–	–
Cn1cccc1-c1cc(-c2ccccc2)c(C#N)c(N)n1 [Compound 4, 2-amino-6-(1-methyl-1H-pyrrol-2-yl)-4-phenylpyridine-3-carbonitrile]	–	32	5	13	–	50	48	2	26	3.6 ± 0.3	152 to 153	–	–	–
COc1ccccc1-c1cc(-c2ccccc2)nc(N)c1C#N [Compound 5, 2-amino-4-(2-methoxyphenyl)-6-phenylpyridine-3-carbonitrile]	–	–	5	26	28	24	30	3	53	–	–	543 ± 13	–	–
COc1ccc(-c2cc(-c3ccccc3)nc(N)c2C#N)c(OC)c1 [Compound 6, 2-amino-4-(2,4-dimethoxyphenyl)-6-phenylpyridine-3-carbonitrile]	–	1	1	6	–	51	27	1	12	5.7 ± 0.3	–	–	–	–
COc1ccc(-c2cc(-c3ccccc3F)nc(N)c2C#N)cc1 [Compound 14, 2-amino-6-(2-fluorophenyl)-4-(4-methoxyphenyl)pyridine-3-carbonitrile]	108 ± 6	30	1	27	10	22	20	7	–	–	–	–	–	–
COc1ccc(-c2cc(-c3ccccc3C)nc(N)c2C#N)cc1 [Compound 15, 2-amino-4-(4-methoxyphenyl)-6-(2-methylphenyl)pyridine-3-carbonitrile]	–	32	4	17	–	57	55	16	6	1.5 ± 0.2	–	–	–	–
COc1ccc(-c2cc(-c3ccco3)nc(N)c2C#N)cc1 [Compound 16, 2-amino-6-(furan-2-yl)-4-(4-methoxyphenyl)pyridine-3-carbonitrile]	–	–	33	21	–	–	30	2	–	3.2 ± 0.4	205 to 207	–	3.4	–
COc1ccc(-c2cc(-c3ccc(O)cc3)nc(N)c2C#N)cc1 [Compound 17, 2-amino-6-(4-hydroxyphenyl)-4-(4-methoxyphenyl)pyridine-3-carbonitrile]	–	29	1	8	65	–	44	7	46	–	–	–	3.5	–
COc1ccccc1-c1cc(-c2ccccc2C)nc(N)c1C#N [Compound 20, 2-amino-4-(2-methoxyphenyl)-6-(2-methylphenyl)pyridine-3-carbonitrile]	–	50	3	6	–	31	23	12	12	6.4 ± 0.4	–	–	–	–
COc1ccccc1-c1cc(-c2ccc(O)cc2)nc(N)c1C#N [Compound 22, 2-amino-6-(4-hydroxyphenyl)-4-(2-methoxyphenyl)pyridine-3-carbonitrile]	–	1	1	2	–	63	16	9	8	5.6 ± 0.5	–	–	–	–
N#Cc1c(-c2ccco2)cc(-c2ccsc2)nc1N [Compound 25, 2-amino-4-(furan-2-yl)-6-(thiophen-3-yl)pyridine-3-carbonitrile]	–	–	5	2	–	48	–	14	15	5.1 ± 0.4	–	55 ± 2	–	4.7
